This passage reports LogP and chromatographic logP results from patent US20230165252A1, “ACTIVE COMPOUND COMBINATIONS” (Bayer Aktiengesellschaft, priority 2020, published 2023).

A short description of one series: Measurement of Log P values by HPLC on reversed phase columns (EEC directive 79/831 Annex V.A8), methods [a], [b], [c]. The series is classed as physicochemical. The following applies: HPLC method [a].
Procedure: Measurement of Log P values as provided herein was performed according to EEC directive 79/831 Annex V.A8 by HPLC (High Performance Liquid Chromatography) on reversed phase columns with the following methods: • ^[a]
Take `Cc1c(Cl)nnc(Oc2cccc(C(F)(F)F)c2)c1C(=O)NCC(F)(F)c1ccc(Cl)cc1Cl` [I-338]: the LogP is 4.43^[a].

Consider `Cc1ccc(CCNC(=O)c2cc(Cl)nnc2Oc2cccc(C(F)(F)F)c2)c(-c2nccn2C)c1` [I-341], for which the LogP was 1.85^[a].

Turning to `O=C(NCCc1ccc(C(F)F)cc1)c1cc(Cl)nnc1Oc1cccc(C(F)(F)F)c1` [I-309], the LogP was 3.78^[a].

The same series, now with this note: HPLC method [b].
On to `Cc1cc(C(=O)NCCc2ccc(C(F)F)cn2)c(Oc2cccc(C3CC3)c2)nn1` [I-282], for which the LogP was 2.82^[b].

The series is the same for the next values; noted with them: HPLC on reversed phase column, method [a].
For `Cc1c(Cl)nnc(Oc2cccc(C3CC3)c2F)c1C(=O)NCCc1ccc(Cl)cc1Cl` [I-215], the LogP was 4.58^[a]. Still for that read-out and setting: under `CC(=O)N(C)Cc1c(Cl)nnc(Oc2cccc(C(F)(F)F)c2)c1C(=O)NCCc1ccc(C)cc1C` [I-077] stands 3.65^[a]; under `O=C(NCCc1ncccc1C(F)(F)F)c1cc(Cl)nnc1Oc1cccc(C(F)(F)F)c1` [I-037], 3.65^[a]. `O=C(NCC(F)(F)c1ccc(Cl)cn1)c1cc(Cl)nnc1Oc1cccc(C(F)F)c1` [I-158]: the LogP is 3.32^[a].

With `Cc1cc(C(=O)NC2CCOc3c(C)cccc32)c(Oc2cccc(C(F)(F)F)c2)nn1` (racemic) [I-107], the LogP is 3.65^[a]. The same measure, in the same setting: the figure for `Cc1cc(C(=O)NCC(F)(F)c2ccc(C3CCCCC3)cc2Cl)c(Oc2cccc(C(F)(F)F)c2)nn1` [I-018] is 5.44^[a].

For `CC(CNC(=O)c1cc(Cl)nnc1Oc1cccc(C(F)(F)F)c1)c1ccc(Cl)cc1Cl` (centres unmarked) [I-075], the LogP was 4.68^[a].

Still in this series, the particulars now being: method [a].
As to `Cc1ccc(C(F)(F)CNC(=O)c2c(Oc3cccc(C(F)(F)F)c3)nnc(Cl)c2NCCC2CC2)c(C)c1` [I-809], the LogP was 4.95^[a].

Regarding `COCCc1c(C2CC2)nnc(Oc2cccc(C(F)(F)F)c2)c1C(=O)NCC(F)(F)c1ccc(C)cc1C` [I-636], the LogP is 4.57^[a].

`C=CCOc1c(Cl)nnc(Oc2cccc(C(F)(F)F)c2)c1C(=O)NCC(F)(F)c1ccc(C)cc1C` [I-684]: the LogP was 4.87^[a].

For the compound `COCCc1cc(C(=O)NCC(F)(F)c2ccc(C)cc2C)c(Oc2cccc(C(F)(F)F)c2)nn1` [I-796], the LogP was 4.00^[a]. Same read-out and setting: under `Cc1ccc(C(F)(F)CNC(=O)c2cc(C3CCOC3)nnc2Oc2cccc(C(F)(F)F)c2)c(C)c1` (racemic) [I-794] stands 3.78^[a]; under `Cc1ccc(C(F)(F)CNC(=O)c2cc(Cc3ccccc3)nnc2Oc2cccc(C(F)(F)F)c2)c(C)c1` [I-797], 4.95^[a].

Turning to `O=C(NCC(F)(F)c1ccc(Cl)cc1Cl)c1cc(Cl)nnc1Oc1cccc(C2CC2)c1F` [I-598], the LogP was 4.71^[a]. Still for that read-out and setting: under `CON(CCc1ccc(Cl)cc1Cl)C(=O)c1c(Oc2cccc(C3CC3)c2F)nnc(Cl)c1C` [I-739] stands 5.36^[a]; under `Cc1cnn(CCNC(=O)c2cc(C)nnc2Oc2cccc(C(F)(F)F)c2)c1` [I-691], 2.58^[a]; under `O=C(NCc1cccc2cnccc12)c1cc(Cl)nnc1Oc1cccc(C(F)(F)F)c1` [I-559], 2.14^[a].

`O=C(NCCc1ccc2c(c1)OCCO2)c1cc(Cl)nnc1Oc1cccc(C(F)(F)F)c1` [I-573]: the LogP was 3.53^[a]. With `Cc1cc(C(=O)NCCc2ccc(C(F)F)cn2)c(Oc2cccc(C(F)(F)F)c2)nn1` [I-525], the LogP was 2.57^[a];.

Regarding `CCSc1c(Cl)nnc(Oc2cccc(C(F)(F)F)c2)c1C(=O)NCC(F)(F)c1ccc(C)cc1C` [I-442], the LogP was 4.87^[a]. Same read-out and setting: the figure for `Cc1ccc(C(F)(F)CNC(=O)c2cc(Cl)nnc2Oc2ccc3[nH]ccc3c2)c(C)c1` [I-769] is 3.78^[a].

The series is the same for the next values; noted with them: method [a]: LC-UV, acidic range, 0.1% formic acid in water and acetonitrile as eluent (10% to 95% acetonitrile); Table 3, compounds of formula (1).
Take `N#Cc1cc(C(=O)O)c(Oc2cccc(C(F)(F)F)c2)nn1` [Compound 1-007]: the LogP was 1.74^[a].

On to `Cc1c(Cl)nnc(Oc2cccc(C3CC3)c2F)c1C(=O)O` [Compound 1-005], for which the LogP was 1.84^[a]. Still for that read-out and setting: under `O=C(O)c1cc(Cl)nnc1Oc1cccc(F)c1F` [Compound 1-024] stands 1.65^[a].

As to `Cc1nnc(Oc2cccc(C3CC3)c2)c(C(=O)O)c1C` [Compound 1-037], the LogP is 1.10^[a]. Same read-out and setting: under `CC(=O)c1cccc(Oc2nnc(Cl)cc2C(=O)O)c1` [Compound 1-093] stands 1.01^[a]; under `O=C(O)c1cc(-c2ccncc2Cl)nnc1Oc1cccc(F)c1F` [Compound 1-053], 1.22^[a]; under `CNc1c(Cl)nnc(Oc2cccc(C3CC3)c2F)c1C(=O)O` [Compound 1-116], 1.97^[a]. With `Cc1cc(C(=O)O)c(Oc2cccc(C(F)(F)F)c2)nn1` [Compound 1-125], the LogP is 1.92^[a].

Consider `O=C(O)c1cc(Cl)nnc1Oc1cncc(C(F)(F)F)c1` [Compound 1-025], for which the LogP was 1.31^[a]. Still for that read-out and setting: the figure for `O=C(O)c1cc(C2CC2)nnc1Oc1cccc(C(F)F)c1` [Compound 1-012] is 1.68^[a]. Same read-out and setting: under `O=C(O)c1cc(Cl)nnc1Oc1cccc(Br)c1` [Compound 1-048] stands 1.66^[a]. On the same count and under the same terms, the figure for `CC(C)OC(=O)c1cc(-n2ccnc2)nnc1Oc1cccc(C(F)(F)F)c1` [Compound 1-050] is 2.55^[a].

The same series, now with this note: method [a]: LC-UV, acidic range, 0.1% formic acid in water and acetonitrile as eluent; Table 5, compounds of formula (2).
As for `Cc1cc(C(F)F)ccc1C(F)CN` (racemic) [Compound 2-06], the LogP was 0.69^[a].

Still in this series, the particulars now being: method [b]: LC-UV, neutral range, 0.001 molar ammonium acetate solution in water and acetonitrile as eluent (10% to 95% acetonitrile); Table 3, compounds of formula (1).
`O=C(O)c1cc(Cl)nnc1Oc1cncc(C2CC2)c1` [Compound 1-051]: the LogP is 0.59^[b].

Still in this series, the particulars now being: reversed-phase HPLC column, HPLC method [a].
What is called chromatographic logP is lipophilicity estimated from chromatographic retention. High values mean a more lipophilic compound, low ones a more hydrophilic compound. Regarding `Cc1ccc(C(F)(F)CNC(=O)c2c(Oc3cccc(C(F)(F)F)c3)nnc(Cl)c2NC2COC2)c(C)c1` [Compound I-408, 6-chloro-N-[2-(2,4-dimethylphenyl)-2,2-difluoro-ethyl]-5-(oxetan-3-ylamino)-3-[3-(trifluoromethyl)phenoxy]pyridazine-4-carboxamide], the chromatographic logP is 3.85. With `COC(=O)N(CC(F)(F)c1ccc(C)cc1C)C(=O)c1cc(Cl)nnc1Oc1cccc(C(F)(F)F)c1` [Compound I-335, methyl N-[6-chloro-3-[3-(trifluoromethyl)phenoxy]pyridazine-4-carbonyl]-N-[2-(2,4-dimethylphenyl)-2,2-difluoro-ethyl]carbamate], the chromatographic logP came out at 5.19. Compound `CCc1c(Cl)nnc(Oc2cccc(C(F)(F)F)c2)c1C(=O)NCC(F)(F)c1ccc(Cl)cc1` [Compound I-254, 6-chloro-N-[2-(4-chlorophenyl)-2,2-difluoro-ethyl]-5-ethyl-3-[3-(trifluoromethyl)phenoxy]pyridazine-4-carboxamide] displayed a chromatographic logP of 4.51.

Still in this series, the particulars now being: reversed-phase HPLC column, HPLC method [b].
With `Cc1ccc(C(F)(F)CNC(=O)c2c(Oc3cccc(C(F)(F)F)c3)nnc(Cl)c2NC2COC2)c(C)c1` [Compound I-408, 6-chloro-N-[2-(2,4-dimethylphenyl)-2,2-difluoro-ethyl]-5-(oxetan-3-ylamino)-3-[3-(trifluoromethyl)phenoxy]pyridazine-4-carboxamide], the chromatographic logP was determined as 3.94.

Still in this series, the particulars now being: reversed-phase HPLC column, HPLC on reversed phase column, method [a].
The compound `Cc1ccc(C(F)(F)CNC(=O)c2c(Oc3cccc(C(F)(F)F)c3)nnc(Cl)c2I)c(C)c1` [Compound I-020, 6-chloro-N-[2-(2,4-dimethylphenyl)-2,2-difluoro-ethyl]-5-iodo-3-[3-(trifluoromethyl)phenoxy]pyridazine-4-carboxamide] yielded a chromatographic logP of 4.61.

`Cc1ccc(C(F)(F)CNC(=O)c2cc(Cl)nnc2Oc2cccc(C(F)(F)F)c2)c(C)c1` [Compound I-014, 6-chloro-N-[2-(2,4-dimethylphenyl)-2,2-difluoro-ethyl]-3-[3-(trifluoromethyl)phenoxy]pyridazine-4-carboxamide] came in with a chromatographic logP of 4.46.

Staying with this series, now noted: reversed-phase HPLC column, method [a].
In the case of `Cc1ccc(C(F)(F)CNC(=O)c2c(Oc3cccc(C(F)(F)F)c3)nnc(Cl)c2-c2cccnc2)c(C)c1` [Compound I-550, 6-chloro-N-[2-(2,4-dimethylphenyl)-2,2-difluoro-ethyl]-5-(3-pyridyl)-3-[3-(trifluoromethyl)phenoxy]pyridazine-4-carboxamide], the chromatographic logP worked out at 3.99. On the same count and under the same terms, under `O=C(NCC(F)(F)c1ccc(Br)cc1Cl)c1cc(Cl)nnc1Cl` [Compound 3-10, N-[2-(4-bromo-2-chloro-phenyl)-2,2-difluoro-ethyl]-3,6-dichloro-pyridazine-4-carboxamide] stands 3.29; under `Cc1ccc(C(F)(F)CNC(=O)c2cc(C)nnc2Oc2cccc(C3CCC3)c2)c(C)c1` [Compound I-564, 3-(3-cyclobutylphenoxy)-N-[2-(2,4-dimethylphenyl)-2,2-difluoro-ethyl]-6-methyl-pyridazine-4-carboxamide], 3.85.

The same series, now with this note: reversed-phase HPLC column, method [a]: LC-UV, acidic range, 0.1% formic acid in water and acetonitrile as eluent (10% to 95% acetonitrile); Table 3, compounds of formula (1).
Take `CCOC(=O)c1cc(Cl)nnc1Oc1cccc(Br)c1` [Compound 1-130]: the chromatographic logP worked out at 3.65. On the same count and under the same terms, the figure for `COC(=O)c1c(Oc2cccc(Cl)c2)nnc(Cl)c1C` [Compound 1-033, methyl 6-chloro-3-(3-chlorophenoxy)-5-methyl-pyridazine-4-carboxylate] is 3.37; for `CCOC(=O)c1cc(Cl)nnc1Oc1cccc(Cl)c1F` [Compound 1-119] it is 3.6.

In the case of `COC(=O)c1c(Oc2cccc(C(F)(F)F)c2)nnc(Cl)c1-c1ccccc1` [Compound 1-085], the chromatographic logP was determined as 4.25. On the same count and under the same terms, the figure for `COC(=O)c1c(Oc2cccc(C(F)(F)F)c2)nnc(Cl)c1OC` [Compound 1-046] is 3.52; for `COC(=O)c1cc(Cl)nnc1Oc1cccc(C2CC2)c1F` [Compound 1-099] it is 3.45.

For the compound `COC(=O)c1cc(C)nnc1Oc1cccc(C2CC2)c1F` [Compound 1-100], the chromatographic logP was determined as 2.89. Still for that read-out and setting: under `CCOC(=O)c1c(Oc2cccc(Cl)c2F)nnc(Cl)c1C` [Compound 1-121] stands 3.88; under `CCOC(=O)c1cc(SC)nnc1Oc1cccc(C(F)(F)F)c1` [Compound 1-083], 3.96.

`COC(=O)c1c(Oc2cccc(Cl)c2)nnc(C)c1C` [Compound 1-042] showed a chromatographic logP of 2.71.

Staying with this series, now noted: reversed-phase HPLC column, method [b].
In the case of `O=C(NCC(F)(F)c1ccc(Br)cc1Cl)c1cc(Cl)nnc1Cl` [Compound 3-10, N-[2-(4-bromo-2-chloro-phenyl)-2,2-difluoro-ethyl]-3,6-dichloro-pyridazine-4-carboxamide], the chromatographic logP was determined as 3.24.
